Experimental data as given in patent US9890185B2, “Urea derivatives useful as kinase inhibitors” (Respivert Limited, priority 2013, dated 2018).

Experiments:
[1] = target: p38 MAPKα isoform (MAPK14) (Homo sapiens (Human), UniProt Q16539); experiment: p38 MAPKα enzyme inhibition (FRET, Z-LYTE, Method 2); format: biochemical
Experimental: (§1) The enzyme inhibitory activities of compounds disclosed herein are determined by FRET using synthetic peptides labelled with both donor and acceptor fluorophores (Z-LYTE, Invitrogen Ltd., Paisley, UK).
The following two assay variants can be used for determination of p38 MAPKα inhibition.
The inhibitory activities of test compounds against the p38 MAPKα isoform (MAPK14: Invitrogen), are evaluated indirectly by determining the level of activation/phosphorylation of the down-stream molecule, MAPKAP-K2. The p38 MAPKα protein (80 ng/mL, 2.5 μL) is mixed with the test compound (2.5 μL of either 4 μg/mL, 0.4 μg/mL, 0.04 μg/mL or 0.004 μg/mL) for 2 hr at RT. […] The mixture is incubated for 1 hr at RT. Development reagent (protease, 5 μL) is added for 1 hr prior to detection in a fluorescence microplate reader (Varioskan® Flash, ThermoFisher Scientific).
This method follows the same steps as Method 1 above, but utilises a higher concentration of the p38 MAPKα protein (2.5 μL of 200 ng/mL protein instead of 2.5 μL of 80 ng/mL protein) for mixing with the test compound.
(§2) In all cases, the site-specific protease cleaves non-phosphorylated peptide only and eliminates the FRET signal. Phosphorylation levels of each reaction are calculated using the ratio of coumarin emission (donor) over fluorescein emission (acceptor), for which high ratios indicate high phosphorylation and low ratios indicate low phosphorylation levels. The percentage inhibition of each reaction is calculated relative to non-inhibited control and the 50% inhibitory concentration (IC50 value) is then calculated from the concentration-response curve.

c-Src = c-Src (Homo sapiens (Human), UniProt P12931); experiment: c-Src enzyme inhibition (FRET, Z-LYTE); format: biochemical
Sequence of c-Src (P12931 whole entry, looked up): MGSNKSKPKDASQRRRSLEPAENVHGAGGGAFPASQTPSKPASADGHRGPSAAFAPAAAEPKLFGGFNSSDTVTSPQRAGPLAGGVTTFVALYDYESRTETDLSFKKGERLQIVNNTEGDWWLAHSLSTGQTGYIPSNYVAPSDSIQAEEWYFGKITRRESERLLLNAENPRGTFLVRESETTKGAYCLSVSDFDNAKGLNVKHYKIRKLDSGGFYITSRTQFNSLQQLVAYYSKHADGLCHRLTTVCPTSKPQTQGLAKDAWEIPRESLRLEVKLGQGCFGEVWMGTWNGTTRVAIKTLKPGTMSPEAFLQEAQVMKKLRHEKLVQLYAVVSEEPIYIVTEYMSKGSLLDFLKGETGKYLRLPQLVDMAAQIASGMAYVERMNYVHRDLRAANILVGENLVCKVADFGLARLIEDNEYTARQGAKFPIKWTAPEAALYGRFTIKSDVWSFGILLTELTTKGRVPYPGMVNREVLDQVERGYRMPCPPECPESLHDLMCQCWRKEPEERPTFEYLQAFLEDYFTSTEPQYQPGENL
Experimental: as §1
(§3) The inhibitory activities of compounds of the invention against c-Src and Syk enzymes (Invitrogen), are evaluated in a similar fashion to that described hereinabove. The relevant enzyme (3000 ng/mL or 2000 ng/mL respectively, 2.5 μL) is incubated with the test compound (either 4 μg/mL, 0.4 μg/mL, 0.04 μg/mL, or 0.004 μg/mL, 2.5 μL each) for 2 hr at RT. The FRET peptides (8 μM, 2.5 μL), and appropriate ATP solutions (2.5 μL, 800 μM for c-Src, and 60 μM ATP for Syk) are then added to the enzymes/compound mixtures and incubated for 1 hr. Development reagent (protease, 5 μL) is added for 1 hr prior to detection in a fluorescence microplate reader (Varioskan® Flash, ThermoFisher Scientific).
as §2

Syk = Syk (Homo sapiens (Human), UniProt P43405); experiment: Syk enzyme inhibition (FRET, Z-LYTE); format: biochemical
Experimental: as §1, §3, §2

GSK 3α = GSK 3α (Homo sapiens (Human), UniProt P49840); experiment: GSK 3α enzyme inhibition (FRET, Z-LYTE, Method 2); format: biochemical; details: read-out: IC50 Values for Enzyme Inhibition, GSK3α
Sequence of GSK 3α (P49840 whole entry): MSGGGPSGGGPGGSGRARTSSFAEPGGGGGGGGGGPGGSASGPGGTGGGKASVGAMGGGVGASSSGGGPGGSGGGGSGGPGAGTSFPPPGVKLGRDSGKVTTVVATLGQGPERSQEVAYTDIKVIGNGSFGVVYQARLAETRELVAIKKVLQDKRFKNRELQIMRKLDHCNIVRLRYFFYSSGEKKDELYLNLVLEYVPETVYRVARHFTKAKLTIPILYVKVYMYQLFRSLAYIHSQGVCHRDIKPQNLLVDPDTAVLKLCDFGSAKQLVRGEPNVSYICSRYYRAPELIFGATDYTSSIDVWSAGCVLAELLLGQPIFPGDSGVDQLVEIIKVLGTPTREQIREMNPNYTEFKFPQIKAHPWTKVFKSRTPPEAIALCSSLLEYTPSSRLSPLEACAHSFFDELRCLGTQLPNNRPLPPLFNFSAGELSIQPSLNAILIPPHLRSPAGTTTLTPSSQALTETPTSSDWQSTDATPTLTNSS
Procedure, shortened: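 Recombinant human GSK3α was preincubated with compound (stocks 4, 0.4, 0.04 or 0.004 μg/mL) at RT, 2 hr for Method 1 and 105 min for Method 2. FRET peptide (8 μM stock) and ATP (40 μM stock) were added for 1 hr, then protease development for 1 hr. IC50 was taken from concentration–response curves.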

PBMCs [2] = experiment: LPS-induced IL-8 release in PBMC cells (assay b); format: cell-based, human; details: Homo sapiens, PBMC; LPS-stimulated PBMCs; read-out: IC50 Values for Inhibition of Cytokine Release, PBMCs IL-8
Procedure, shortened: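 Human PBMCs from healthy donors, isolated by density gradient, were pretreated with compound for 2 h and then stimulated with 1 ng/mL LPS (E. coli 0111:B4) for 24 h at 37° C, 5% CO2. Supernatant IL-8 and TNFα were measured by sandwich ELISA, and IC50 was taken from the dose-response curve.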

d-U937 cells = experiment: Accumulation of β catenin in d-U937 cells (assay m); format: cell-based, human; details: percentage relative to Reference Compound at 1 μg/mL
Experimental: U937 cells, a human monocytic cell line, are differentiated into macrophage-type cells by incubation with PMA; (100 ng/mL) for between 48 to 72 hr. The cells are then incubated with either final concentrations of test compound or vehicle for 18 hr. The induction of β-catenin by the test compounds is stopped by replacing the media with 4% formaldehyde solution. Endogenous peroxide activity is neutralised by incubating with quenching buffer (100 μL, 0.1% sodium azide, 1% H2O2 in PBS with 0.05% Tween-20) for 20 min. The cells are washed with washing buffer (200 μL; PBS containing 0.05% Tween-20) and incubated with blocking solution (200 μL; 5% milk in PBS) for 1 hr, re-washed with washing buffer (200 μL) and then incubated overnight with anti-β-catenin antibody solution (50 μL) in 1% BSA/PBS (BD, Oxford, UK).
After washing with washing buffer (3×200 μL; PBS containing 0.05% Tween-20), cells are incubated with an HRP-conjugated secondary antibody solution (100 μL) in 1% BSA/PBS (Dako, Cambridge, UK) and the resultant signal is determined colourimetrically (OD: 450 nm with a reference wavelength of 655 nm) using TMB substrate (50 μL; R&D Systems, Abingdon, UK). This reaction is stopped by addition of 1N H2SO4 solution (50 μL). Cells are then washed with washing buffer and 2% crystal violet solution (50 μL) is applied for 30 min. After washing with washing buffer (3×200 μL), 1% SDS (100 μL) is added to each well and the plates are shaken lightly for 1 hr prior to measuring the absorbance at 595 nm (Varioskan® Flash, Thermo-Fisher Scientific).
The measured OD450-655 readings are corrected for cell number by dividing the OD450-655 by the OD595 readings.

PBMCs [3] = experiment: Cell mitosis assay in PBMCs (assay g); format: cell-based; details: Homo sapiens, PBMC, test compound 5 μg/mL
Experimental: Peripheral blood mononucleocytes (PBMCs) from healthy subjects are separated from whole blood (Quintiles, London, UK) using a density gradient (Histopaque®-1077, Sigma-Aldrich, Poole, UK). The PBMCs (3 million cells per sample) are subsequently treated with 2% PHA (phytohaemagglutinin, Sigma-Aldrich, Poole, UK) for 48 hr, followed by a 20 hr exposure to varying concentrations of test compounds. At 2 hr before collection, PBMCs are treated with demecolcine (0.1 μg/mL; Invitrogen, Paisley, UK) to arrest cells in metaphase. To observe mitotic cells, PBMCs are permeabilised and fixed by adding Intraprep (50 μL; Beckman Coulter, France), and stained with anti-phospho-histone 3 (0.26 ng/L; #9701; Cell Signalling, Danvers, Mass.) and propidium iodide (1 mg/mL; Sigma-Aldrich, Poole, UK) as previously described (Muehlbauer P. A. and Schuler M. J., Mutation Research, 2003, 537:117-130). Fluorescence is observed using an ATTUNE flow cytometer (Invitrogen, Paisley, UK), gating for lymphocytes. The percentage inhibition of mitosis is calculated for each treatment relative to vehicle (0.5% DMSO) treatment.

Sequence of p38 MAPKα isoform (MAPK14) (Q16539 whole entry, canonical isoform): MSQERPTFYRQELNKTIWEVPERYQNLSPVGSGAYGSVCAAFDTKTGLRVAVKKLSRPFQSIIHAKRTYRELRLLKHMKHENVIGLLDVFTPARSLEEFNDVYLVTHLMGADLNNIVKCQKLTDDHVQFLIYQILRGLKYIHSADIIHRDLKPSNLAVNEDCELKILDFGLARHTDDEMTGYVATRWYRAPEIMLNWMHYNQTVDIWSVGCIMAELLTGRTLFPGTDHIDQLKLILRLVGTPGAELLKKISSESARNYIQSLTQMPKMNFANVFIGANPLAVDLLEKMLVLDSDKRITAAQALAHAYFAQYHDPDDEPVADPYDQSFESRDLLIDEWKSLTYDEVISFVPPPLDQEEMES

Row | Compound | IC50 [1] | IC50 (c-Src) | IC50 (Syk) | IC50 (GSK 3α) | IC50 (PBMCs [2]) | % β-catenin induction (d-U937 cells; test compound 1 μg/mL) | % β-catenin induction (d-U937 cells; test compound 5 μg/mL) | % β-catenin induction (d-U937 cells; test compound 10 μg/mL) | inhibition at 5 µg/mL (PBMCs [3])
1 | COc1cccc(Nc2cc(Oc3ccc(NC(=O)Nc4cc(C(C)(C)C)cc(P(C)(C)=O)c4OC)c4ccccc34)ccn2)c1 [15(af), 1-(5-(tert-butyl)-3-(dimethylphosphoryl)-2-methoxyphenyl)-3-(4-((2-((3-methoxy-phenyl)amino)pyridin-4-yl)oxy)naphthalen-1-yl)urea] | 226 nM | 77 nM | 278 nM | 9400 nM | 2.7 nM | −2.0% | 13.0% | 32.0% | –
2 | COc1c(NC(=O)Nc2ccc(Oc3ccnc(Nc4ccccc4)n3)c3ccccc23)cc(C(C)(C)C)cc1P(C)(C)=O [15(b), 1-(5-(tert-butyl)-3-(dimethylphosphoryl)-2-methoxyphenyl)-3-(4-((2-(phenylamino)-pyrimidin-4-yl)oxy)naphthalen-1-yl)urea] | 59 nM | 14 nM | 273 nM | 785 nM | 4.5 nM | – | – | – | –
3 | COc1c(NC(=O)Nc2ccc(Oc3ccnc(Nc4cc(C)c5[nH]ncc5c4)n3)c3ccccc23)cc(C(C)(C)C)cc1P(C)(C)=O [15(j), 1-(5-(tert-butyl)-3-(dimethylphosphoryl)-2-methoxyphenyl)-3-(4-((2-((7-methyl-1H-indazol-5-yl)amino)pyrimidin-4-yl)oxy)naphthalen-1-yl)urea] | 173 nM | 19 nM | 16 nM | 855 nM | 3.2 nM | – | – | – | –
4 | COc1c(CC(N)=O)cc(C(C)(C)C)cc1NC(=O)Nc1ccc(Oc2ccnc(Nc3cc(OCCN4CCOCC4)cc(C(F)(F)F)c3)c2)c2ccccc12 [38(w), 2-(5-(tert-Butyl)-2-methoxy-3-(3-(4-((2-((3-(2-morpholinoethoxy)-5-(trifluoromethyl)-phenyl)amino)pyridin-4-yl)oxy)naphthalen-1-yl)ureido)phenyl)acetamide] | – | – | – | > 12700 nM | 4 nM | – | – | – | 23.9%
5 | COc1c(NC(=O)Nc2ccc(Oc3ccnc(Nc4cc(OCCN5CCOCC5)cc(C(F)(F)F)c4)c3)c3ccccc23)cc(C(C)(C)C)cc1[S+](C)[O-] (centres unmarked) [38(x), 1-(5-(tert-Butyl)-2-methoxy-3-(methylsulfinyl)phenyl)-3-(4-((2-((3-(2-morpholinoethoxy)-5-(trifluoromethyl)phenyl)amino)pyridin-4-yl)oxy)naphthalen-1-yl)urea] | – | – | – | > 12600 nM | 4.1 nM | – | – | – | 35%
6 | COc1cc(Nc2cc(Oc3ccc(NC(=O)Nc4cc(C(C)(C)C)cc(P(C)(C)=O)c4OC)c4ccccc34)ccn2)cc(OC)c1 [Example 27, 1-(5-(tert-Butyl)-3-(dimethylphosphoryl)-2-methoxyphenyl)-3-(4-((2-((3,5-dimethoxyphenyl)-amino)pyridin-4-yl)oxy)naphthalen-1-yl)urea] | 230 nM | 44 nM | 137 nM | 11300 nM | 1 nM | 5.7% | 13.0% | 13.3% | 52%
7 | COCCOCCOCCOc1cc(Nc2cc(Oc3ccc(NC(=O)Nc4cc(C(C)(C)C)cc(CP(C)(C)=O)c4OC)c4ccccc34)ccn2)cc(OC)c1 [Example 29, 1-(5-(tert-Butyl)-3-((dimethylphosphoryl)methyl)-2-methoxyphenyl)-3-(4-((2-((3-methoxy-5-(2-(2-(2-methoxyethoxy)ethoxy)ethoxy)phenyl)amino)pyridin-4-yl)oxy)naphthalen-1-yl)urea] | 31 nM | 24 nM | 123 nM | 5470 nM | 0.8 nM | 6.5% | 9.0% | 45.0% | 49.4%
8 | COc1c(NC(=O)Nc2ccc(Oc3ccnc(NCc4ccccn4)n3)c3ccccc23)cc(C(C)(C)C)cc1P(C)(C)=O [Example 32, 1-(5-(tert-Butyl)-3-(dimethylphosphoryl)-2-methoxyphenyl)-3-(4-((2-((pyridin-2-ylmethyl)-amino)pyrimidin-4-yl)oxy)naphthalen-1-yl)urea] | 6 nM | 1110 nM | 1600 nM | 988 nM | 1.8 nM | – | – | – | –
9 | COc1cncc(Nc2cc(Oc3ccc(NC(=O)Nc4cc(C(C)(C)C)cc(P(C)(C)=O)c4OC)c4ccccc34)ccn2)c1 [Example 34, 1-(5-(tert-Butyl)-3-(dimethylphosphoryl)-2-methoxyphenyl)-3-(4-((2-((5-methoxypyridin-3-yl)amino)pyridin-4-yl)oxy)naphthalen-1-yl)urea] | 56 nM | 43 nM | 228 nM | 1580 nM | 1.2 nM | 2.0% | 28.5% | 23.0% | 81.1%
10 | COc1c(NC(=O)Nc2ccc(Oc3ccnc(Nc4ccn(C)n4)c3)c3ccccc23)cc(C(C)(C)C)cc1P(C)(C)=O [Example 36, 1-(5-(tert-Butyl)-3-(dimethylphosphoryl)-2-methoxyphenyl)-3-(4-((2-((1-methyl-1H-pyrazol-3-yl)amino)pyridin-4-yl)oxy)naphthalen-1-yl)urea] | 31 nM | 27 nM | 54 nM | 1070 nM | 1.1 nM | 17.5% | 84.5% | 27.5% | 86.6%
